Experimental data reported in the NIST ThermoML archive (doi:10.1016/j.jct.2016.09.007).
Numbers after ± are expanded uncertainties.

Assay: xn = mol fraction of the nth substance listed
Settings: 93.2 kPa, Liquid; for speed of sound: Frequency=3 MHz, Sing-around technique in a fixed-path interferometer; for mass density: Vibrating tube method

CCCC(=O)[O-].CCCC[NH3+] [n-butylammonium butanoate] + CCO
Settings | mass density, 293.15 K [kg/m3] | mass density, 298.15 K [kg/m3] | mass density, 303.15 K [kg/m3] | mass density, 308.15 K [kg/m3] | mass density, 313.15 K [kg/m3] | speed of sound, 293.15 K [m/s] | speed of sound, 298.15 K [m/s] | speed of sound, 303.15 K [m/s] | speed of sound, 308.15 K [m/s] | speed of sound, 313.15 K [m/s]
x1 = 0.0512 | 814.143 ± 4 | 810.002 ± 4 | 805.829 ± 4 | 801.613 ± 4 | 797.355 ± 4 | 1199 ± 5.2 | 1182 ± 5.2 | 1165 ± 5.2 | 1148.2 ± 5.2 | 1131.5 ± 5.2
x1 = 0.1009 | 832.02 ± 4 | 828.016 ± 4 | 823.986 ± 4 | 819.912 ± 4 | 815.802 ± 4 | 1227.7 ± 5.2 | 1210.7 ± 5.2 | 1193.8 ± 5.2 | 1177 ± 5.2 | 1160.4 ± 5.2
x1 = 0.1503 | 846.238 ± 4 | 842.335 ± 4 | 838.406 ± 4 | 834.444 ± 4 | 830.445 ± 4 | 1251.6 ± 5.2 | 1234.6 ± 5.2 | 1217.8 ± 5.2 | 1201.1 ± 5.2 | 1184.5 ± 5.2
x1 = 0.1994 | 858.208 ± 4 | 854.396 ± 4 | 850.551 ± 4 | 846.681 ± 4 | 842.738 ± 4 | 1272.7 ± 5.2 | 1255.7 ± 5.2 | 1238.9 ± 5.2 | 1222.2 ± 5.2 | 1205.7 ± 5.2
x1 = 0.2504 | 868.474 ± 4 | 864.721 ± 4 | 860.912 ± 4 | 857.053 ± 4 | 853.31 ± 4 | 1291.1 ± 5.2 | 1274.2 ± 5.2 | 1257.4 ± 5.2 | 1240.8 ± 5.2 | 1224.2 ± 5.2
x1 = 0.2982 | 876.405 ± 4 | 872.722 ± 4 | 869.017 ± 4 | 865.27 ± 4 | 861.491 ± 4 | 1306 ± 5.2 | 1289.1 ± 5.2 | 1272.3 ± 5.2 | 1255.7 ± 5.2 | 1239.2 ± 5.2
x1 = 0.3495 | 883.788 ± 4 | 880.151 ± 4 | 876.505 ± 4 | 872.836 ± 4 | 869.15 ± 4 | 1320 ± 5.2 | 1303.1 ± 5.2 | 1286.3 ± 5.2 | 1269.7 ± 5.2 | 1253.3 ± 5.2
x1 = 0.399 | 890.046 ± 4 | 886.464 ± 4 | 882.862 ± 4 | 879.217 ± 4 | 875.544 ± 4 | 1332.2 ± 5.2 | 1315.3 ± 5.2 | 1298.5 ± 5.2 | 1282 ± 5.2 | 1265.5 ± 5.2
x1 = 0.4372 | 894.397 ± 4 | 890.847 ± 4 | 887.284 ± 4 | 883.704 ± 4 | 880.105 ± 4 | 1340.7 ± 5.2 | 1323.8 ± 5.2 | 1307.1 ± 5.2 | 1290.5 ± 5.2 | 1274.1 ± 5.2
x1 = 0.4992 | 900.42 ± 4 | 896.912 ± 4 | 893.396 ± 4 | 889.863 ± 4 | 886.306 ± 4 | 1352.8 ± 5.2 | 1335.9 ± 5.2 | 1319.2 ± 5.2 | 1302.6 ± 5.2 | 1286.2 ± 5.2
x1 = 0.547 | 904.601 ± 4 | 901.123 ± 4 | 897.636 ± 4 | 894.139 ± 4 | 890.621 ± 4 | 1361.5 ± 5.2 | 1344.5 ± 5.2 | 1327.7 ± 5.2 | 1311.2 ± 5.2 | 1294.8 ± 5.2
x1 = 0.6017 | 908.757 ± 4 | 905.303 ± 4 | 901.834 ± 4 | 898.348 ± 4 | 894.849 ± 4 | 1370.4 ± 5.2 | 1353.3 ± 5.2 | 1336.5 ± 5.2 | 1319.9 ± 5.2 | 1303.6 ± 5.2
x1 = 0.649 | 912.071 ± 4 | 908.66 ± 4 | 905.237 ± 4 | 901.798 ± 4 | 898.346 ± 4 | 1377.6 ± 5.2 | 1360.5 ± 5.2 | 1343.6 ± 5.2 | 1326.9 ± 5.2 | 1310.6 ± 5.2
x1 = 0.6917 | 914.76 ± 4 | 911.378 ± 4 | 907.983 ± 4 | 904.574 ± 4 | 901.145 ± 4 | 1384 ± 5.2 | 1366.7 ± 5.2 | 1349.7 ± 5.2 | 1333 ± 5.2 | 1316.6 ± 5.2
x1 = 0.7436 | 917.782 ± 4 | 914.431 ± 4 | 911.071 ± 4 | 907.692 ± 4 | 904.29 ± 4 | 1391.5 ± 5.2 | 1373.9 ± 5.2 | 1356.7 ± 5.2 | 1339.9 ± 5.2 | 1323.4 ± 5.2
x1 = 0.7901 | 920.284 ± 4 | 916.95 ± 4 | 913.616 ± 4 | 910.264 ± 4 | 906.897 ± 4 | 1398.2 ± 5.3 | 1380.2 ± 5.3 | 1362.8 ± 5.2 | 1345.9 ± 5.2 | 1329.3 ± 5.2
x1 = 0.8493 | 923.093 ± 4 | 919.763 ± 4 | 916.446 ± 4 | 913.124 ± 4 | 909.786 ± 4 | 1406.5 ± 5.3 | 1388 ± 5.3 | 1370.2 ± 5.3 | 1352.9 ± 5.3 | 1336.2 ± 5.3
x1 = 0.8904 | 924.887 ± 4 | 921.547 ± 4 | 918.232 ± 4 | 914.921 ± 4 | 911.604 ± 4 | 1412.5 ± 5.3 | 1393.5 ± 5.3 | 1375.2 ± 5.3 | 1357.7 ± 5.3 | 1340.7 ± 5.3
x1 = 0.94 | 927.026 ± 4 | 923.73 ± 4 | 920.395 ± 4 | 917.09 ± 4 | 913.789 ± 4 | 1420.7 ± 5.3 | 1400.8 ± 5.3 | 1382 ± 5.3 | 1364 ± 5.3 | 1346.7 ± 5.3
x1 = 1 | 928.794 ± 4 | 925.509 ± 4 | 922.217 ± 4 | 918.88 ± 4 | 915.567 ± 4 | 1431.5 ± 5.3 | 1410.3 ± 5.3 | 1390.4 ± 5.3 | 1371.5 ± 5.3 | 1353.6 ± 5.3
